Converted amounts (≈) assume the structure as drawn.
Test system: MCF7
Assay: Antitumor activity against human MCF7 cells by MTT assay
Format: functional, cell-based

CC(C)C[C@@H]1OC(=O)CNC(=O)[C@H](C(C)C)NC(=O)[C@H](Cc2ccc(O)cc2)NC(=O)CNC(=O)[C@@H](CC(C)C)NC1=O
IC50: 100 mg/L (≈ 166 µM)
